Molecular target: T1, human LXRβ (Homo sapiens, UniProt P55055)
T1 construct: expressed in transfected cells; host or cells: HEK293 cells (ATCC CRL-1573), transient transfection with pFA-hLXRβ/GAL4 and pUAS
T1 sequence (P55055 222-460 limits assumed): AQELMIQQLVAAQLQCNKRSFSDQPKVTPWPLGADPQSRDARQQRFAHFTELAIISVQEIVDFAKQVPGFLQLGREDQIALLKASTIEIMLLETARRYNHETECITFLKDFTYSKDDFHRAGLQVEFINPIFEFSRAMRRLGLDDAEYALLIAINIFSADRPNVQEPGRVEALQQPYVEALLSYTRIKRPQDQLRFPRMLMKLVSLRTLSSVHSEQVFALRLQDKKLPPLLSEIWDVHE
Assay: Assay for Transcriptional Activity of LXRβ (GAL4-hLXRβ LBD luciferase reporter, transient transfection)
Assay type: cell-based
Settings: HEK293 cells transfected with pFA-hLXRβ/GAL4 and pUAS, 24 hours; for Emax: fold value in comparison with the control (DMSO-treated group); for EC50: increase of transcriptional activity of LXRβ, average of three independent tests
How it was run: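 EC50 values, averaged over three independent runs, come from a four-parameter fit of 9-point half-log curves spanning 0.01–50 μM. Luciferase output was read in lysed HEK293 cells 24 h after dosing at 37 °C, following transient transfection with a GAL4-human LXRβ LBD fusion plus GAL4-responsive reporter.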

SMILES: CC(C)(C)OC(=O)N1CC=C(c2ccc(C3CC(C(O)(C(F)(F)F)C(F)(F)F)=NN3c3ccccc3Cl)s2)CC1 (centres unmarked) [Example 416, 1-(2-chloro-phenyl)-5-[5-(1-BOC-1,2,3,6-tetrahydropyridin-4-yl)-thiophen-2-yl]-3-[di-(trifluoromethyl)-hydroxy-methyl]-4,5-dihydro-1H-pyrazole]
- Emax: 90 fold
- EC50: 1110 nM

SMILES: Cl.OC(C1=NN(c2ccccc2Cl)C(c2ccc(C3=CCNCC3)s2)C1)(C(F)(F)F)C(F)(F)F (centres unmarked) [Example 417, 1-(2-chloro-phenyl)-5-[5-(1,2,3,6-tetrahydropyridin-4-yl)-thiophen-2-yl]-3-[di-(trifluoromethyl)-hydroxy-methyl]-4,5-dihydro-1H-pyrazole hydrochloride]
- Emax: 58 fold
- EC50: 1030 nM

SMILES: CS(=O)(=O)N1CC=C(c2ccc(C3CC(C(O)(C(F)(F)F)C(F)(F)F)=NN3c3ccccc3Cl)s2)CC1 (centres unmarked) [Example 418, 1-(2-chloro-phenyl)-5-[5-(1-methanesulfonyl-1,2,3,6-tetra hydropyridin-4-yl)-thiophen-2-yl]-3-[di-(trifluoromethyl)-hydroxy-methyl]-4,5-dihydro-1H-pyrazole]
- Emax: 106 fold
- EC50: 373 nM

SMILES: CS(=O)(=O)c1cccc(-c2ccc(C3CC(C(O)(C(F)(F)F)C(F)(F)F)=NN3c3ccccc3Cl)s2)c1 (centres unmarked) [Example 419, 1-(2-chloro-phenyl)-5-{5-[3-(methylsulfonyl)-phenyl]-thiophen-2-yl}-3-[di-(trifluoromethyl)-hydroxy-methyl]-4,5-dihydro-1H-pyrazole]
- Emax: 82 fold

SMILES: CS(=O)(=O)c1ccc(-c2ccc(C3CC(C(O)(C(F)(F)F)C(F)(F)F)=NN3c3ccccc3Cl)s2)cn1 (centres unmarked) [Example 420, 1-(2-chloro-phenyl)-5-{5-[6-(methylsulfonyl)-pyridin-3-yl]-thiophen-2-yl}-3-[di-(trifluoromethyl)-hydroxy-methyl]-4,5-dihydro-1H-pyrazole]
- Emax: 80 fold

SMILES: CSc1cccc(-c2cccc(N3N=C(C(O)(C(F)(F)F)C(F)(F)F)CC3c3ccccc3Cl)c2)c1 (centres unmarked) [Example 431, 5-(2-chloro-phenyl)-1-[3′-(methylsulfanyl)-biphenyl-3-yl]-3-[di-(trifluoromethyl)-hydroxy-methyl]-4,5-dihydro-1H-pyrazole]
- Emax: 17 fold
- EC50: 2240 nM

SMILES: CC(C)(C)OC(=O)N1CC=C(c2cccc(N3N=C(C(O)(C(F)(F)F)C(F)(F)F)CC3c3ccccc3Cl)c2)CC1 (centres unmarked) [Example 433, 5-(2-chloro-phenyl)-1-[3-(1-BOC-1,2,3,6-tetrahydropyridin-4-yl)-phenyl]-3-[di-(trifluoromethyl)-hydroxy-methyl]-4,5-dihydro-1H-pyrazole]
- Emax: 13 fold
- EC50: 6600 nM

SMILES: CS(=O)(=O)c1cccc(-c2cccc(N3N=C(C(O)(C(F)(F)F)C(F)(F)F)CC3c3ccccc3Cl)c2)c1 (centres unmarked) [Example 434, 5-(2-chloro-phenyl)-1-[3′-(methylsulfonyl)-biphenyl-3-yl]-3-[di-(trifluoromethyl)-hydroxy-methyl]-4,5-dihydro-1H-pyrazole]
- Emax: 30 fold
- EC50: 354 nM

SMILES: CS(=O)(=O)c1ccc(-c2cccc(N3N=C(C(O)(C(F)(F)F)C(F)(F)F)CC3c3ccccc3Cl)c2)cn1 (centres unmarked) [Example 435, 5-(2-chloro-phenyl)-1-{3-[6-(methylsulfonyl)-pyridin-3-yl]-phenyl}-3-[di-(trifluoromethyl)-hydroxy-methyl]-4,5-dihydro-1H-pyrazole]
- Emax: 25 fold
- EC50: 965 nM

SMILES: CS(=O)(=O)N1CC=C(c2cccc(N3N=C(C(O)(C(F)(F)F)C(F)(F)F)CC3c3ccccc3Cl)c2)CC1 (centres unmarked) [Example 437, 5-(2-chloro-phenyl)-1-[3-(1-methylsulfonyl-1,2,3,6-tetrahydropyridin-4-yl)-phenyl]-3-[di-(trifluoromethyl)-hydroxy-methyl]-4,5-dihydro-1H-pyrazole]
- Emax: 13 fold
- EC50: 932 nM

SMILES: O=S(=O)(C1CC1)N1CC=C(c2cccc(N3N=C(C(O)(C(F)(F)F)C(F)(F)F)CC3c3ccccc3Cl)c2)CC1 (centres unmarked) [Example 438, 5-(2-chloro-phenyl)-1-[3-(1-cyclopropanesulfonyl-1,2,3,6-tetrahydropyridin-4-yl)-phenyl]-3-[di-(trifluoromethyl)-hydroxy-methyl]-4,5-dihydro-1H-pyrazole]
- Emax: 6 fold
- EC50: 1930 nM

Reference: patent US9376420B2 (YUHAN CORPORATION, priority 2012, dated 2016)
